Common to all, as to assay: NCI-60 cell line screen, 48 h
Experiment [1] deals with 786-0.
Experiment [2] concerns A498.
The subject of experiment [3] is HCC 2998.
In experiment [4] the test system is HCT-15.
Experiment [5] deals with HOP-92.
The test system of experiment [6] is IGROV-1.
Experiment [7] relates to K562.
The subject of experiment [8] is M14.
The subject of experiment [9] is MOLT-4.
Experiment [10] has as its system Malme-3M.
The test system of experiment [11] is OVCAR-3.
Experiment [12] concerns RPMI-8226.
The subject of experiment [13] is SK-OV-3.
Experiment [14] concerns SNB-75.
The subject of experiment [15] is U-251.
In experiment [16] the test system is UACC-62.
Experiment [17] deals with NCI/ADR-RES.
Experiment [18] concerns PC-3.
In experiment [19] the test system is T47D.

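1) Cells in 96-well plates. 2) Compound, 48 h, 5 concentrations. 3) Linear interpolation between surrounding doses. 4) Unreached endpoint = highest concentration. GI50 is the concentration that inhibits growth by half.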 Activity calls are given as the source filed them. Rule as the data show it: active = GI50 up to about 1.1 µM and inactive = higher.

On to `CN(N=O)C(=O)NC(CCCCNC(=O)OCc1ccccc1)C(=O)OCc1ccccc1` (centres undefined), for which the GI50 was 17.5 µM (inactive) in experiment [1]; 55.5 µM (inactive) in experiment [2]; 23.4 µM (inactive) in experiment [3]; 36 µM in experiment [4]; 18.5 µM (inactive) in experiment [5]; > 100 µM (inactive) in [6]. Also, the GI50 in [7] is 48.8 µM (inactive); in experiment [8], 19.3 µM (inactive); in [9] it was 26.6 µM (inactive); in experiment [10], 30.5 µM (inactive); in [11] it was 25.3 µM (inactive); in experiment [12], 33.5 µM (inactive). Moreover, the GI50 in experiment [13] is > 100 µM (inactive); in experiment [14], 18.8 µM (inactive); in experiment [15], 53.3 µM (inactive); in experiment [16], 13.7 µM (inactive).

In the case of `O=C(/C=C/c1ccc(OCC(=O)N2CCN(c3ccccc3)CC2)cc1)c1ccccc1`, the GI50 is 14.6 µM (inactive) in [1]; > 56.8 µM (inactive) in experiment [2]; 45.4 µM (inactive) in [3]; 7.5 µM in experiment [4]; 29 µM (inactive) in experiment [5]; 32.9 µM (inactive) in [6]. The GI50 in [7] was 3.18 µM (inactive); in experiment [8], 29.8 µM (inactive); in [9], 3.05 µM (inactive); in experiment [10] it was 15 µM (inactive); in experiment [11], 13.2 µM (inactive); in [12], 3.75 µM (inactive). The GI50 in experiment [13] was 38.1 µM (inactive); in experiment [14] it was 17.9 µM (inactive); in [15], 7.14 µM (inactive); in experiment [16], 17.8 µM (inactive).

With `COC(=O)C1(Cc2ccccc2)Cc2ccccc2C1=O` (centres undefined), the GI50 in [1] is 60.5 µM (inactive); in [3] it was 42.3 µM (inactive); in experiment [4], 37.2 µM; in experiment [5], 59.2 µM (inactive); in experiment [6] it was 72.8 µM (inactive); in experiment [7], 35 µM (inactive). In addition, the GI50 in experiment [8] was 32.5 µM (inactive); in experiment [9], 25.6 µM (inactive); in experiment [10] it was 16.3 µM (inactive); in experiment [17] it was 25.7 µM (inactive); in [11], 39.3 µM (inactive); in [18] it was 44.9 µM (inactive). Further, the GI50 is 35 µM (inactive) in experiment [12]; > 100 µM (inactive) in experiment [13]; 42.7 µM (inactive) in experiment [14]; 43.1 µM (inactive) in experiment [19]; 27.7 µM (inactive) in experiment [15]; 67.3 µM (inactive) in experiment [16].

Regarding `CNC(=S)/N=C(\N)N(C)C`, the GI50 in experiment [1] is > 100 µM (inactive); in experiment [2], > 100 µM (inactive); in experiment [3], > 100 µM (inactive); in [4] it was greater than 100 µM; in experiment [5], > 100 µM (inactive); in experiment [6], > 100 µM (inactive). Besides, the GI50 in experiment [7], in experiment [8], in experiment [9], in experiment [10], in experiment [11] and in experiment [12] was > 100 µM (inactive) in each case. Further, the GI50 in [13], in experiment [14], in experiment [15] and in experiment [16] was > 100 µM (inactive) each time.

Regarding `B.CC(=O)OC1CN2CCC1CC2` (centres undefined), the GI50 in experiment [1] was > 100 µM (inactive); in experiment [2] it was > 100 µM (inactive); in experiment [3], > 100 µM (inactive); in experiment [4], greater than 100 µM; in experiment [6] it was > 100 µM (inactive); in experiment [7] it was > 100 µM (inactive). For the same molecule, the GI50 in experiment [8], in experiment [9], in [10], in experiment [17], in [11] and in [18] was > 100 µM (inactive) each time. The GI50 in experiment [13], in [19], in experiment [15] and in [16] was > 100 µM (inactive) each time.

As for `CCOC(=O)[C@@]1(C)C=C2O[C@@H]3OC4(CCCCC4)O[C@@H]3C2=C2C(O)=CC=C(O)[C@]21C(=O)OC`, the GI50 in experiment [1] was > 68.1 µM (inactive); in experiment [2] it was > 68.1 µM (inactive); in experiment [3], > 68.1 µM (inactive); in experiment [4] it was greater than 68.1 µM; in [5], 13.4 µM (inactive); in experiment [6], > 68.1 µM (inactive). The GI50 in [7] was 51.1 µM (inactive); in [8], 20.7 µM (inactive); in experiment [9], 33.7 µM (inactive); in experiment [10], > 68.1 µM (inactive); in experiment [11], > 68.1 µM (inactive); in experiment [12], 38.6 µM (inactive). Further, the GI50 in [13], in experiment [14], in experiment [15] and in experiment [16] was > 68.1 µM (inactive) each time.

`Nc1nc(-c2ccc(Cl)c([N+](=O)[O-])c2)cs1`: the GI50 is 59.4 µM (inactive) in experiment [1]; 20 µM (inactive) in [2]; > 100 µM (inactive) in [3]; greater than 100 µM in experiment [4]; 16.2 µM (inactive) in experiment [5]; > 100 µM (inactive) in [6]. Moreover, the GI50 was > 100 µM (inactive) in experiment [7]; > 100 µM (inactive) in experiment [8]; 97.3 µM (inactive) in experiment [9]; > 100 µM (inactive) in experiment [10]; > 100 µM (inactive) in experiment [11]; > 100 µM (inactive) in experiment [12]. Moreover, the GI50 in [13] was > 100 µM (inactive); in experiment [14], 30.4 µM (inactive); in experiment [15], 40.6 µM (inactive); in experiment [16], > 100 µM (inactive).

In the case of `CC(C)(C)OC(=O)N1NC(c2ccccc2)CC1c1ccccc1` (centres undefined), the GI50 in [1] is 38.3 µM (inactive); in [2] it was 27.8 µM (inactive); in experiment [3] it was 38.5 µM (inactive); in experiment [4] it was 22.1 µM; in [5], 37.7 µM (inactive); in experiment [7] it was 31.7 µM (inactive). The GI50 in experiment [8] is 16.3 µM (inactive); in experiment [9], 24.8 µM (inactive); in experiment [17], 20.2 µM (inactive); in experiment [11], 34.8 µM (inactive); in [12], 35.6 µM (inactive); in experiment [13], 37.6 µM (inactive). Moreover, the figures for the GI50 in experiment [14], in experiment [19] and in [16] were 17.1 µM (inactive), 13.5 µM (inactive) and 20.6 µM (inactive), respectively.

As to `CCOC(=O)C1=C(C)N(NC(=O)Nc2ccccc2)C(=O)C1=P(c1ccccc1)(c1ccccc1)c1ccccc1`, the GI50 in experiment [1] was 63 µM (inactive); in [2], 29.5 µM (inactive); in [3] it was 47.2 µM (inactive); in experiment [4], 27.5 µM; in experiment [5], 31 µM (inactive); in experiment [6] it was 29.6 µM (inactive). Further, the GI50 was 26.6 µM (inactive) in experiment [7]; 32.4 µM (inactive) in experiment [8]; 18.8 µM (inactive) in [9]; 36.2 µM (inactive) in experiment [10]; 36.5 µM (inactive) in experiment [11]; 24.2 µM (inactive) in experiment [12]. Moreover, the GI50 in experiment [13] was > 100 µM (inactive); in experiment [14] it was 38 µM (inactive); in experiment [15] it was 33.9 µM (inactive); in experiment [16], 25.6 µM (inactive).

Consider `CCOC(=O)N(c1ccccc1)N(CC)C(=O)/C(C)=N/Nc1ccc([N+](=O)[O-])cc1`, for which the GI50 in experiment [1] is 17.1 µM (inactive); in experiment [2], 14.3 µM (inactive); in experiment [3], 18 µM (inactive); in experiment [4], 16 µM; in experiment [5] it was 15.5 µM (inactive); in experiment [6], 17.3 µM (inactive). In addition, the GI50 in experiment [7] is 14.7 µM (inactive); in [8] it was 17.9 µM (inactive); in experiment [9], 17.7 µM (inactive); in [10] it was 17.6 µM (inactive); in [11], 16.2 µM (inactive); in experiment [12], 16.8 µM (inactive). Further, the GI50 is 19.8 µM (inactive) in experiment [13], 18.1 µM (inactive) in [14], 15 µM (inactive) in experiment [15] and 13.6 µM (inactive) in [16].

Turning to `Nc1ccc(/N=N/c2ccc(-c3ccc(/N=N/c4c(S(=O)(=O)O)cc5cc(S(=O)(=O)O)c(/N=N/c6ccc([N+](=O)[O-])cc6)c(N)c5c4O)cc3)cc2)c2cc(S(=O)(=O)O)ccc12`, the GI50 in experiment [1] was > 100 µM (inactive); in [2], > 100 µM (inactive); in experiment [3] it was > 100 µM (inactive); in [4] it was greater than 100 µM; in [5], 97.7 µM (inactive); in experiment [6] it was > 100 µM (inactive). The GI50 in experiment [7], in [8], in experiment [9], in experiment [10], in [11] and in experiment [12] was > 100 µM (inactive) each time. Also, the GI50 in experiment [13] is > 100 µM (inactive); in experiment [14], 78.9 µM (inactive); in experiment [15] it was > 100 µM (inactive); in [16], > 100 µM (inactive).

For the molecule `COc1cc([C@@H]2c3cc4c(c(O)c3C[C@H]3COC(=O)[C@@H]32)OCO4)cc(OC)c1O`, the GI50 in [1] is 0.00596 µM (active); in experiment [2], < 0.02 µM (active); in [3], 0.0237 µM (active); in experiment [5] it was < 0.02 µM (active); in [6] it was 0.0277 µM (active); in experiment [7] it was 0.0243 µM (active). The GI50 in experiment [8] is 0.00278 µM (active); in [10], 0.0266 µM (active); in [17] it was 0.0231 µM (active); in [12] it was 0.026 µM (active); in experiment [14], 25.4 µM (inactive); in experiment [16] it was < 0.02 µM (active).

Values taken from ChEMBL document CHEMBL1201862, “PubChem BioAssay data set” (2004).
